Measurements taken from ChEMBL document CHEMBL1201862, “PubChem BioAssay data set” (2004).
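Where inhibition never reached the appropriate level, the endpoint shown equals the highest concentration tested. Otherwise, values were interpolated linearly from a five-concentration, 48-hour dose response in 96-well plates. GI50 is the concentration that inhibits growth by half.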 Activity calls are given as the source filed them. Rule as the data show it: active = GI50 up to about 1.1 µM and inactive = higher.

Legend:
Assay in all cases: NCI tumour cell line growth inhibition, 48 h
A498 = test system: A498
HCT-116 = test system: HCT-116
HCT-15 = test system: HCT-15
HL-60 = test system: HL-60
HT-29 = test system: HT-29
LOX IMVI = test system: LOX IMVI
M14 = test system: M14
MDA-MB-435 = test system: MDA-MB-435
MOLT-4 = test system: MOLT-4
NCI-H23 = test system: NCI-H23
NCI/ADR-RES = test system: NCI/ADR-RES
SF-268 = test system: SF-268
SK-OV-3 = test system: SK-OV-3
SN12C = test system: SN12C
SNB-75 = test system: SNB-75
T47D = test system: T47D
HOP-92 = test system: HOP-92
K562 = test system: K562
SNB-19 = test system: SNB-19
SR = test system: SR

| SMILES | GI50 (A498) | GI50 (HCT-116) | GI50 (HCT-15) | GI50 (HL-60) | GI50 (HT-29) | GI50 (LOX IMVI) | GI50 (M14) | GI50 (MDA-MB-435) | GI50 (MOLT-4) | GI50 (NCI-H23) | GI50 (NCI/ADR-RES) | GI50 (SF-268) | GI50 (SK-OV-3) | GI50 (SN12C) | GI50 (SNB-75) | GI50 (T47D) | GI50 (HOP-92) | GI50 (K562) | GI50 (SNB-19) | GI50 (SR) |
| --- | --- | --- | --- | --- | --- | --- | --- | --- | --- | --- | --- | --- | --- | --- | --- | --- | --- | --- | --- | --- |
| NNc1[nH]c(=S)[nH]c1C(N)=O | > 100 µM (inactive) | > 100 µM (inactive) | > 100 µM | > 100 µM (inactive) | > 100 µM (inactive) | > 100 µM (inactive) | > 100 µM (inactive) | > 100 µM (inactive) | > 100 µM (inactive) | > 10 µM (inactive) | > 100 µM (inactive) | > 100 µM (inactive) | > 100 µM (inactive) | > 100 µM (inactive) | > 100 µM (inactive) | > 100 µM (inactive) | – | – | – | – |
| C/C(Cc1ccc2c(c1)OCO2)=N\N=c1\sc2ccccc2n1C | > 100 µM (inactive) | 48.5 µM (inactive) | 68.4 µM | > 100 µM (inactive) | 42.8 µM (inactive) | > 100 µM (inactive) | > 100 µM (inactive) | > 100 µM (inactive) | 78.3 µM (inactive) | 78 µM (inactive) | > 100 µM (inactive) | > 100 µM (inactive) | – | > 100 µM (inactive) | – | 58.7 µM (inactive) | 84.9 µM (inactive) | > 100 µM (inactive) | > 100 µM (inactive) | – |
| COC(=O)Nc1nc(=O)c2cc(OC)c(OC)cc2[nH]1 | 71.9 µM (inactive) | 5.2 µM (inactive) | 17.5 µM | 7.46 µM (inactive) | 6.68 µM (inactive) | – | > 100 µM (inactive) | – | 6.84 µM (inactive) | 50 µM (inactive) | 5.47 µM (inactive) | > 100 µM (inactive) | 42.1 µM (inactive) | 64.9 µM (inactive) | 11.6 µM (inactive) | 36 µM (inactive) | – | 3.59 µM (inactive) | 36.4 µM (inactive) | > 100 µM (inactive) |
| c1ccc(C(=NCCC2CNc3ccccc32)c2ccccc2)cc1 (stereo unspecified) | > 100 µM (inactive) | > 100 µM (inactive) | > 100 µM | – | > 100 µM (inactive) | – | > 100 µM (inactive) | > 100 µM (inactive) | > 100 µM (inactive) | > 100 µM (inactive) | > 100 µM (inactive) | – | > 100 µM (inactive) | – | – | – | > 100 µM (inactive) | > 100 µM (inactive) | > 100 µM (inactive) | > 100 µM (inactive) |
| O=C1Nc2ccccc2/C1=N/Nc1nc(-c2ccccc2)cs1 | – | 31.9 µM (inactive) | 23.1 µM | 2.45 µM (inactive) | 27.7 µM (inactive) | 44.6 µM (inactive) | 23.1 µM (inactive) | > 100 µM (inactive) | 45.2 µM (inactive) | 47.6 µM (inactive) | 20.5 µM (inactive) | – | 59 µM (inactive) | 27.1 µM (inactive) | 8.63 µM (inactive) | 26.9 µM (inactive) | 35.7 µM (inactive) | – | 29.9 µM (inactive) | – |
| N#Cc1sc2c(c1O)c(=O)n(-c1ccccc1)c(=S)n2-c1ccccc1 | – | – | > 100 µM | > 100 µM (inactive) | > 100 µM (inactive) | > 100 µM (inactive) | > 100 µM (inactive) | > 100 µM (inactive) | – | > 100 µM (inactive) | – | > 100 µM (inactive) | – | > 100 µM (inactive) | > 100 µM (inactive) | > 100 µM (inactive) | > 100 µM (inactive) | 89.1 µM (inactive) | > 100 µM (inactive) | > 100 µM (inactive) |
| COC1OC(CO)C(O)C(OC(=O)c2cc(O)c(O)c(O)c2)C1OC(=O)c1cc(O)c(O)c(O)c1 (stereo unspecified) | – | 37.7 µM (inactive) | 66.2 µM | 51.9 µM (inactive) | 65 µM (inactive) | 23.3 µM (inactive) | 45.4 µM (inactive) | 33.4 µM (inactive) | 79.4 µM (inactive) | > 100 µM (inactive) | 60.4 µM (inactive) | 59.4 µM (inactive) | > 100 µM (inactive) | 61.9 µM (inactive) | > 100 µM (inactive) | – | – | 35.6 µM (inactive) | > 100 µM (inactive) | 53.7 µM (inactive) |
| Cc1cc(Nc2ccc(S(=O)(=O)O)c3cc(S(=O)(=O)O)cc(S(=O)(=O)O)c23)c2ccccc2n1 | > 100 µM (inactive) | > 100 µM (inactive) | > 100 µM | > 100 µM (inactive) | > 100 µM (inactive) | > 100 µM (inactive) | > 100 µM (inactive) | > 100 µM (inactive) | > 100 µM (inactive) | > 100 µM (inactive) | > 100 µM (inactive) | > 100 µM (inactive) | > 100 µM (inactive) | > 100 µM (inactive) | > 100 µM (inactive) | > 100 µM (inactive) | – | – | > 100 µM (inactive) | – |
| Nc1ncnc2c(C3OC(CO)C(O)C3O)n[nH]c12 (stereo unspecified) | 0.484 µM (active) | 0.0767 µM (active) | – | 0.045 µM (active) | 0.0895 µM (active) | 0.0647 µM (active) | – | – | – | 1.12 µM (inactive) | 0.076 µM (active) | – | – | 0.0652 µM (active) | 0.196 µM (active) | – | 0.0513 µM (active) | 0.0741 µM (active) | 0.211 µM (active) | – |
| CCC1=CC2CN3CCc4c([nH]c5ccccc45)C(C(=O)OC)(C2)C13 (stereo unspecified) | 48.1 µM (inactive) | 35.6 µM (inactive) | 44.2 µM | 36.7 µM (inactive) | 22.7 µM (inactive) | 61.8 µM (inactive) | – | – | 39.8 µM (inactive) | 45.6 µM (inactive) | 45.5 µM (inactive) | 54.5 µM (inactive) | 69.3 µM (inactive) | 47.4 µM (inactive) | 48.4 µM (inactive) | – | 12.4 µM (inactive) | 39.2 µM (inactive) | 46 µM (inactive) | – |
| NC1=NC(c2ccccc2)CC(c2cc(Cl)cc(Br)c2O)=N1 (stereo unspecified) | 16.4 µM (inactive) | 12.1 µM (inactive) | 7.64 µM | 3.28 µM (inactive) | 13.5 µM (inactive) | 12.7 µM (inactive) | 14.7 µM (inactive) | – | 3.1 µM (inactive) | 10.8 µM (inactive) | 9.35 µM (inactive) | 11.7 µM (inactive) | 24.7 µM (inactive) | 13.4 µM (inactive) | 14 µM (inactive) | – | 18 µM (inactive) | 3 µM (inactive) | 17 µM (inactive) | 6.43 µM (inactive) |
| NC(CCCNc1ccc(O)cc1)C(=O)O (stereo unspecified) | 41.3 µM (inactive) | 18.2 µM (inactive) | 30.1 µM | 19.8 µM (inactive) | 41.7 µM (inactive) | 18.5 µM (inactive) | 31.8 µM (inactive) | – | 25.4 µM (inactive) | 97.9 µM (inactive) | – | 42.8 µM (inactive) | > 100 µM (inactive) | > 47.5 µM (inactive) | 42.5 µM (inactive) | – | 26.5 µM (inactive) | 35.4 µM (inactive) | > 100 µM (inactive) | 25.3 µM (inactive) |
| O=Cc1cc2c(cc1-c1cc3c(cc1C=O)OCO3)OCO2 | > 100 µM (inactive) | 58.7 µM (inactive) | 70.3 µM | 34.1 µM (inactive) | 90.2 µM (inactive) | 23.3 µM (inactive) | > 100 µM (inactive) | – | 45.5 µM (inactive) | 72.4 µM (inactive) | – | > 100 µM (inactive) | > 100 µM (inactive) | > 100 µM (inactive) | > 100 µM (inactive) | – | > 100 µM (inactive) | 30.8 µM (inactive) | 87.9 µM (inactive) | 21 µM (inactive) |
| COc1ccc(-c2cc(O)c3cccnc3n2)cc1 | 63.5 µM (inactive) | – | 34.3 µM | – | 15.7 µM (inactive) | 28.1 µM (inactive) | 28.3 µM (inactive) | – | 29.3 µM (inactive) | 34.7 µM (inactive) | 47.6 µM (inactive) | 40.6 µM (inactive) | 26.7 µM (inactive) | 36.7 µM (inactive) | – | 51.1 µM (inactive) | – | 25.8 µM (inactive) | 78.5 µM (inactive) | – |
| Fc1cccc(Cl)c1C1SCc2nc3ccccc3n21 (stereo unspecified) | 83.2 µM (inactive) | 22.4 µM (inactive) | 31.3 µM | 11 µM (inactive) | 25.5 µM (inactive) | 17.3 µM (inactive) | 34 µM (inactive) | – | 18.8 µM (inactive) | 24.3 µM (inactive) | – | 50.5 µM (inactive) | 22.9 µM (inactive) | 41.4 µM (inactive) | 38.5 µM (inactive) | – | 6.62 µM (inactive) | 25.8 µM (inactive) | 46.1 µM (inactive) | 17.3 µM (inactive) |
| COc1ccc(/C=C\c2cc(OC)c(OC)c(OC)c2)c(O)c1O [COMBRETASTATIN A-1] | – | – | – | 0.0698 µM (active) | 7.03 µM (inactive) | 0.119 µM (active) | 0.0953 µM (active) | < 0.01 µM (active) | 0.0785 µM (active) | – | – | 0.0665 µM (active) | – | 0.256 µM (active) | 1.31 µM (inactive) | > 49.9 µM (inactive) | 0.112 µM (active) | 0.05 µM (active) | – | 2.07 µM (inactive) |
| CCOP(=O)(OCC)C(c1ccc(F)cc1)N(C(=O)NC(F)(F)F)c1ccc(F)cc1 (stereo unspecified) | – | > 100 µM (inactive) | > 100 µM | > 100 µM (inactive) | > 100 µM (inactive) | > 100 µM (inactive) | > 100 µM (inactive) | > 100 µM (inactive) | > 100 µM (inactive) | > 100 µM (inactive) | > 100 µM (inactive) | > 100 µM (inactive) | – | > 100 µM (inactive) | > 100 µM (inactive) | – | – | > 100 µM (inactive) | > 100 µM (inactive) | > 100 µM (inactive) |
| Cn1cc2ccccc2c1-c1nc(F)nc(Nc2ccc(N)cc2)n1 | 6.93 µM (inactive) | 15.5 µM (inactive) | 4.97 µM | 22.3 µM (inactive) | 21.5 µM (inactive) | 12.4 µM (inactive) | 13.6 µM (inactive) | – | 17.5 µM (inactive) | 15.8 µM (inactive) | – | 20 µM (inactive) | 11.6 µM (inactive) | 17.2 µM (inactive) | 11.9 µM (inactive) | – | 15.1 µM (inactive) | 8.63 µM (inactive) | 29.3 µM (inactive) | 16.8 µM (inactive) |
